The term IC50 denotes the point on the concentration scale where inhibition reaches its midpoint.

One assay addresses T1, RET (Homo sapiens, UniProt P07949, C634W).
T1 construct: host or cells: TT (human medullary thyroid carcinoma)
The assay can be described thus: Immunoblotting for cellular RET phosphorylation in TT cells. The class given is cell-based. As to conditions: 4 hours treatment, read-out: suppression of RET autophosphorylation IC50. The method, then: Human medulla thyroid carcinoma cell line TT (containing RET […] mutation) and acute myelogenous cell line KG-1 were purchased from ATCC. Human colon cancer cell line KMI2 (containing TPM3-TRKA) was obtained from NCI. Half a million cells per well were seeded in 24 well plate for 24 hrs, and then treated with compounds for 4 hours. Cells were collected after treatment and lysed in RIPA buffer (50 mM Tris, pH 7.4, 150 mM NaCl, 1% NP-40, 0.5% Deoxycholate, 0.1% SDS) supplemented with 10 mM EDTA, 1× Halt protease and phosphatase inhibitors (Thermo Scientific). Protein lysates (approximately […]) was resolved on 4-12% Bolt Bis-Tris precasted gels with MES running buffer (Life Technologies), transferred to nitrocellulose membranes using Trans-Blot Turbo Transfer System (Bio-Rad) and detected with antibodies targeting phosphorylated RET (Y905) (Cell Signaling Technology), total RET (Cell Signaling Technology), actin (Cell Signaling Technology). Antibodies were typically incubated overnight at 4° C. with gentle shake, followed by washes and incubation with the appropriate HRP-conjugated secondary antibodies. […] The relative density of the chemiluminescent bands were quantified via Image Studio Digits from LICOR. The half inhibitory concentration (IC50) value is calculated using non-linear regression analysis through GraphPad Prism software (GraphPad, Inc., San Diego, Calif.).

A further assay concerns the target T2, KIF5B-RET WT (Homo sapiens, UniProt P07949).
T2 construct: KIF5B (N-terminal fusion partner, kinesin-1 heavy chain, P33176); expressed in transfected cells; host or cells: Ba/F3 cells, lentiviral transduction (pCDH-CMV-MCS-EF1-Puro); the other entry of the earlier key: KIF5B (P33176, Kinesin-1 heavy chain)
The assay can be described thus: Immunoblotting for cellular RET phosphorylation in Ba/F3 KIF5B-RET WT. The class given is cell-based. As to conditions: 4 hours treatment, read-out: suppression of RET autophosphorylation IC50. An excerpt:
The KIF5B-RET gene was synthesized at GenScript and cloned into pCDH-CMV-MCS-EF1-Puro plasmid (System Biosciences, Inc). KIF5B-RET point mutation V804M was generated at GenScript by PCR and confirmed by sequencing. Ba/F3-KIF5B-RET wild type and mutant were generated by transducing Ba/F3 cells with lentivirus containing KIF5B-RET wide type or mutant. Stable cell lines were selected by puromycin treatment, followed by IL-3 withdrawal. Briefly, 5×10^6 Ba/F3 cells were transduced with lentivirus supernatant in the presence of 8 μg/mL protamine sulfate. The transduced cells were subsequently selected with 1 µg/mL puromycin in the presence of IL3-containing medium RPMI1640, plus 10% FBS. After 10-12 days of selection, the surviving cells were further selected for IL3 independent growth.
Half a million cells per well were seeded in 24 well plate for 24 hrs, and then treated with compounds for 4 hours. […] Protein lysates (approximately […]) was resolved on 4-12% Bolt Bis-Tris precasted gels with MES running buffer (Life Technologies), transferred to nitrocellulose membranes using Trans-Blot Turbo Transfer System (Bio-Rad) and detected with antibodies targeting phosphorylated RET (Y905) (Cell Signaling Technology), total RET (Cell Signaling Technology), actin (Cell Signaling Technology). […] The relative density of the chemiluminescent bands were quantified via Image Studio Digits from LICOR. […]
Background: In western blotting, separated proteins are transferred to a membrane and probed.

SMILES strings stand for the structures.

T1 sequence (P07949 29-1114 C634W): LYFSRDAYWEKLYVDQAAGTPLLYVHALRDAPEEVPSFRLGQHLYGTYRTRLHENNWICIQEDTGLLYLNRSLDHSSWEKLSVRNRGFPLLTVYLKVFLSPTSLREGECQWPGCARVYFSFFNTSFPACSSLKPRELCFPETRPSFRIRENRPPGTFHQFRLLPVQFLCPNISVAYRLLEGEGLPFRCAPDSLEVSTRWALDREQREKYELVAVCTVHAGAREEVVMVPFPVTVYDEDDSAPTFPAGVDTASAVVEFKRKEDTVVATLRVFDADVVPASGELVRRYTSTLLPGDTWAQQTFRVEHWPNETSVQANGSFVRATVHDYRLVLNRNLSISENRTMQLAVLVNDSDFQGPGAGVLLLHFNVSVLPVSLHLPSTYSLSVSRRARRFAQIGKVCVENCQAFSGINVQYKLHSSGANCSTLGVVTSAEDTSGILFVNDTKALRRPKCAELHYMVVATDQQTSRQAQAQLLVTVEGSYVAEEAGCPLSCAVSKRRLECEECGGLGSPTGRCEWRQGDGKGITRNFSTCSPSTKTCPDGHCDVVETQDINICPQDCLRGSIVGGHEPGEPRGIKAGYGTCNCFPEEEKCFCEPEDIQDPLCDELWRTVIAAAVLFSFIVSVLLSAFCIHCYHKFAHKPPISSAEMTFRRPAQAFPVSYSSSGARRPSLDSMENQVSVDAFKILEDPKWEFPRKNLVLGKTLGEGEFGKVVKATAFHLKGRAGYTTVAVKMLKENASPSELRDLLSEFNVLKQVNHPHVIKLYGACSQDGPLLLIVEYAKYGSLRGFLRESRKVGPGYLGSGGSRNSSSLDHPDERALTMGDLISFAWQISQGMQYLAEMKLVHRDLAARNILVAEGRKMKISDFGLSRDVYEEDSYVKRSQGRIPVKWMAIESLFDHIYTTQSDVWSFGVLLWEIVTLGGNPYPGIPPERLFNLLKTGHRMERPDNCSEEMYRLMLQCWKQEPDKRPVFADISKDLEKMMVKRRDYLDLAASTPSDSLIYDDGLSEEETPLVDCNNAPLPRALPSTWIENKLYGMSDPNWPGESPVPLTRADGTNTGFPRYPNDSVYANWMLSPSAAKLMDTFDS
T2 sequence (P07949 713-1063 limits assumed): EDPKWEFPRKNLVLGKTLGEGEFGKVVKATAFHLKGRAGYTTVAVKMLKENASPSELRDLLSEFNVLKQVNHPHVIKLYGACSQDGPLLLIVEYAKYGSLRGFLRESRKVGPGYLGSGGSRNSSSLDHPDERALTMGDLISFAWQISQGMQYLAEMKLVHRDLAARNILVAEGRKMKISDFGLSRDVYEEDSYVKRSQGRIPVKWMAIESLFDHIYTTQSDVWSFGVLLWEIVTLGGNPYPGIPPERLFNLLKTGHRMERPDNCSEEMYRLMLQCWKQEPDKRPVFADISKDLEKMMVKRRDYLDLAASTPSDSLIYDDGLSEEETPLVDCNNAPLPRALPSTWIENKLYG

In the case of `C[C@H]1CNC(=O)c2cnn3cc4c(nc23)N(Cc2cc(F)cnc2O1)[C@@H]1CCC[C@@H]1O4` [Compound 5, (3aR,11S,20aS)-7-fluoro-11-methyl-2,3,3a,12,13,20a-hexahydro-1H,5H-17-19-(metheno)cyclopenta[5,6][1,4] oxazino[3,4-i]pyrazolo[4,3-f]pyrido[3,2-l][1,4,8,10]oxatriazacyclotridecin-14(11H)-one], the IC50 on RET was roughly 0.3 nM; on KIF5B-RET WT, 1 to 3 nM.
